{"source": "patent US20220257516A1", "about": "“THERAPEUTIC CONSTRUCTS FOR CO-DELIVERY OF MITOTIC KINASE INHIBITOR AND IMMUNE CHECKPOINT INHIBITOR” (Oregon Health & Science University, priority 2019, published 2022)", "key": {"[1]": {"system": "PD-L1 surface expression of LLC-JSP cells", "test": "PD-L1 surface expression by flow cytometry, LLC-JSP", "type": "cell-based, mouse", "details": "for surface PD-L1 level of surviving cells: 500 ng/ml", "description": "FIGS. 4A-4C Treatment effects of mitotic kinase inhibitors on (A) 3-day viability of LLC-JSP cells, (B) PD-L1 expression levels of surviving cells post treatment with 500 ng/ml of volasertib, alisertib, or AZD7762 as determined by flow cytometry and (C) their quantification.\nFIGS. 6A-6D Nanoparticle delivery of PLK1 inhibitor volasertib (iPLK1-NP) to mouse NSCLC cells. (FIG. 6A) Schematic of synthesis of iPLK1-NP. (FIG. 6B) Hydrodynamic size of NP (with no inhibitor) and iPLK1-NP measured with Zetasizer. (FIG. 6C) Viability of LLC-JSP cells treated with volasertib (in 1% DMSO/PBS), iPLK1-NP (in PBS), or 1% DMSO/PBS for 4 days. Data presented as mean±SD from 4 independent samples; ****P<0.0001. (FIG. 6D) PD-L1 surface expression of LLC-JSP cells treated with PBS or iPLK1-NP (42 μg/ml NP, 210 ng/ml volasertib) for 3 days.\nFIGS. 7A-7E. Nanoparticle for co-delivery of PLK1 inhibitor (iPLK1) and PD-L1 antibody (p-iPLK1-NP). (FIG. 7A) Schematic and (FIG. 7B) hydrodynamic size of p-iPLK1-NP containing 4 wt. % of PD-L1 antibody and 0.5 wt. % of PLK1 inhibitor. (FIG. 7C) 5-day cell viability of LLC-JSP cells treated with iPLK1-NP or p-iPLK1-NP. Data presented as mean±SD from 4 independent samples; ns—not significant. PD-L1 surface expression assessed by flow cytometry after LLC-JSP cells were incubated with various treatments as specified for (FIG. 7D) 2 hrs and (FIG. 7E) 2 days. Doses: free PD-L1 antibody (50 μg/ml), iPLK1-NP (NP containing 50 μg/ml volasertib), and p-iPLK1-NP (NP containing 50 μg/ml volasertib and 2 μg/ml PD-L1 antibody). Left of FIGS. 7D and 7E: representative histograms, right: median intensity (RFU). Data presented as mean±SD from independent duplicates (10,000 events per sample); *P<0.05, **P<0.01, ***P<0.001, ****P<0.0001. Unless specified otherwise, the percent loading is by weight of nanoparticle throughout the application.\n(§1) FIGS. 12A and 12B. Inhibition of PLK1 reduces phosphorylation of STAT3. Western blot showing protein expression of PLK1, Pl3Ka, phosphorylated STAT3 (Tyr705), phosphorylated AKT (Ser473), and p-Actin 3 days post treatment (50 nM siRNA) in A549 and H460 NSCLC cell lines. […] The cells were treated with NP containing 30 nM siRNA against PD-L1 (siPDL1) or 30 nM scrambled siRNA (siSCR) at 2 wt. % siRNA. At 72 hr post treatment, cells were harvested and assessed for PD-L1 protein expression by flow cytometry. RFU=Relative fluorescence units.\nFlow cytometry: Cells (100K cells/well) were plated in 6 well plates overnight and treated with indicated treatments the next day. Following treatments, cells were collected and aliquoted to […] per sample before washing in FACs buffer and staining. […] Cells were then washed with FACs buffer and analyzed with Guava (50,000 events per sample)."}, "LLC-JSP cells": {"system": "LLC-JSP cells", "test": "Cell viability after treatments (Cell Titer Glo), LLC-JSP", "type": "cell-based, mouse", "details": "for 3-day viability of LLC-JSP cells: free mitotic kinase inhibitors", "quoted_text": "(C) Cell viability of murine cancer cells (LLC-JSP, 4T1, B16-F10) and murine bone marrow-derived dendritic cells (BMDC) treated with p-iPLK1-NP.\n(B) Treatment effect of ADC versus free alisertib of equivalent dose on viability of LLC-JSP cells (2-days). Free alisertib was dissolved in DMSO before use.\nCell viability after treatments: Cells (1500/well) were plated in white flat bottom 96 well plate overnight. The following day, cells were treated with indicated treatments and media was changed 24 hr post treatment. 3-5 day post treatment, cell viability was assessed using Cell Titer Glo assay (Promega) following manufacturer's instructions. Luminescence was read with Tecan plate reader."}, "A549": {"system": "A549", "test": "Cell cycle arrest in G2/M phase", "type": "cell-based, human", "details": "72 hr post treatment, 50 nM siRNA, BI 2536 at 10 nM", "description": "(§2) FIGS. 2A-2D. Effects of siRNA against mitotic regulator PLK1 (siPLK1) on non-small-cell lung carcinoma (NSCLC) cell lines (A549 and H460). (FIG. 2A) 48-hr PLK1 mRNA knockdown (HPRT used as house-keeping gene) and (FIG. 2B) 72-hr PLK1 protein reduction at 50 nM siRNA dose. (FIG. 2C) 4-day cell viability at 30 nM siRNA dose. (FIG. 2D) Cell cycle arrest increase in G2/M phase in A549 72 hr post treatment. Antibody (cetuximab) conjugated NP was used to deliver the siPLK1 (C-siPLK1-NP) or scrambled siRNA control (C-siSCR-NP) at 50 nM siRNA BI 2536 (a PLK1 inhibitor) was used as a drug benchmark at 10 nM. Data presented as mean±SD from independent duplicates (10,000 events per sample); ****P<0.0001 vs. untreat control. Unless specified otherwise, “NP” denotes mesoporous silica nanoparticles coated with cross-linked PEI and PEG, as described in Ngamcherdtrakul et al., Advanced Functional Materials, 25(18):2646-2659, 2015 and U.S. Patent Application Publication No. 2017/0173169."}, "PLK1 mRNA": {"system": "PLK1 mRNA", "test": "PLK1 knock down by siRNA (RT-qPCR / protein)", "type": "cell-based, human", "details": "A549; 48 hr post treatment; normalized to HPRT", "description": "as §2\nFIGS. 3A-3C. […] (FIG. 3B) PD-L1 surface expression of A549 (FIG. 2B) and LLC-JSP (a mouse NSCLC, FIG. 3C) at 72 hr post treatments assessed by flow cytometry (10,000 events per sample). […]\nRT-qPCR to assess PLK1 gene knock down: RNA was isolated with GeneJet RNA purification kit (Thermo Fisher Scientific) following manufacturer's instructions. […] Data was analyzed using 2^−ΔΔC(t) method."}, "[2]": {"system": "PD-L1 mRNA expression in A549", "test": "PD-L1 mRNA expression after PLK1 knock-down (RT-qPCR)", "type": "cell-based, human", "details": "48 hr, compared with control treated cells", "text": "(§3) FIGS. 3A-3C. […] (FIG. 3A) PLK1 and PD-L1 mRNA expression in A549 (human NSCLC) at 48 hr post treatment with PLK1 siRNA (siPLK1) or scrambled siRNA (siSCR) normalized to HPRT housekeeping gene. Data presented as mean±SD from triplicates; ****P<0.0001. (FIG. 3B) PD-L1 surface expression of A549 ([…]) and LLC-JSP (a mouse NSCLC, FIG. 3C) at 72 hr post treatments assessed by flow cytometry (10,000 events per sample). Mouse siPLK1 seq. […] (SEQ ID NO: 1); Human siPLK1 seq. […] (SEQ ID NO: 2).\nRT-qPCR to assess PLK1 gene knock down: RNA was isolated with GeneJet RNA purification kit (Thermo Fisher Scientific) following manufacturer's instructions. One-Step qRT-PCR was performed using EXPRESS One-Step Superscript™ qRT-PCR Kit (Invitrogen). Cycling conditions: 50° C. for 2 min, 95° C. for 10 min, 40 cycles of 95° C. for 15 s, and 60° C. for 1 min. TAQMAN gene expression primers Human HPRT mRNA (Hs99999909_m1), Human PLK1 mRNA (Hs00983225_g1), and Human PD-L1 (Hs00204257_ml) were used. Data was analyzed using 2^−ΔΔC(t) method."}, "[3]": {"system": "PD-L1 surface expression of A549", "test": "PD-L1 surface expression by flow cytometry, A549", "type": "cell-based, human", "details": "3 days (72 hr) post siRNA treatment", "text": "as §3\nFlow cytometry: Cells (100K cells/well) were plated in 6 well plates overnight and treated with indicated treatments the next day. Following treatments, cells were collected and aliquoted to […] per sample before washing in FACs buffer and staining. Primary and secondary antibodies were stained for 30 mins and 1 hour, respectively, under rocking on ice. After staining, cells were washed in FACs buffer before flow analysis with Guava easyCyte (Millipore Sigma) flow cytometer (10,000 events per sample). For tumors, tumors were harvested, minced, and incubated with 1 mg/ml DNAse for 30 minutes before smashing through 70 μm filter to obtain single cell suspension. RBC lysis buffer was incubated with cells for 5 minutes, and washed with PBS. […] Cells were then washed with FACs buffer and analyzed with Guava (50,000 events per sample)."}, "[4]": {"system": "phosphorylated STAT3 (Tyr705)", "test": "Western blot of phosphorylated STAT3 after PLK1 inhibition", "type": "cell-based, human", "details": "A549 and H460; 3 days post treatment; 50 nM siRNA", "description": "as §1\nWestern Blot. Cells were seeded in 6 well plates overnight and treated with indicated treatments. Cell culture medium was changed one day aftertreatment. Three days post treatment, cells were lysed in RIPA buffer (50-100 μl per well). Lysate was sonicated and centrifuged (15,000 RPM for 15 minutes) and supernatant was collected. Amount of total protein was quantified using BCA. 30 μg of proteins (per sample) were mixed with 4× Novex NuPAGE LDS sample buffer and beta-mercaptoethanol (10% final concentration). Samples were denatured for 5 min at 95° C. and loaded onto gel (NuPAGE) for electrophoresis. Proteins were then transferred onto PVDF-FL membrane and blocked with LICOR blocking buffer. Membranes were incubated with primary antibodies overnight (PLK1, phospho-STAT3 (Tyr705), β-ACTIN) at 4° C. […]"}}, "data": [{"compound": "NC(=O)Nc1cc(-c2cccc(F)c2)sc1C(=O)N[C@H]1CCCNC1", "note": "[AZD7762]", "values": [{"measurement": "surface PD-L1 level of surviving cells", "setting": "[1]", "value": "upregulated surface PD-L1 level"}, {"measurement": "3-day viability of LLC-JSP cells", "setting": "LLC-JSP cells", "value": "significant cell death"}]}, {"compound": "CC[C@@H]1C(=O)N(C)c2cnc(Nc3ccc(C(=O)NC4CCN(C)CC4)cc3OC)nc2N1C1CCCC1", "note": "[BI2536]", "values": [{"measurement": "cell cycle arrest in G2/M phase", "setting": "A549", "value": "G2/M growth arrest"}]}, {"compound": "COc1cc(Nc2ncc3c(n2)-c2ccc(Cl)cc2C(c2c(F)cccc2OC)=NC3)ccc1C(=O)O", "note": "[alisertib]", "values": [{"measurement": "surface PD-L1 level of surviving cells", "setting": "[1]", "value": "upregulated surface PD-L1 level"}, {"measurement": "3-day viability of LLC-JSP cells", "setting": "LLC-JSP cells", "value": "significant cell death"}]}, {"compound": "CC[C@@H]1C(=O)N(C)c2cnc(Nc3ccc(C(=O)N[C@H]4CC[C@H](N5CCN(CC6CC6)CC5)CC4)cc3OC)nc2N1C(C)C", "note": "[volasertib]", "values": [{"measurement": "surface PD-L1 level of surviving cells", "setting": "[1]", "value": "upregulated surface PD-L1 level"}, {"measurement": "cell viability compared with vehicle treated cells", "setting": "LLC-JSP cells; LLC-JSP, 4 days, dose-dependent", "value": "significantly reduced cell viability"}, {"measurement": "3-day viability of LLC-JSP cells", "setting": "LLC-JSP cells", "value": "significant cell death"}]}, {"compound": "Mouse siPLK1: Mouse siPLK1 seq. GUGGGCGUGGUACCAUCUGUU (SEQ ID NO: 1) (listed as RNA, chemistry not given here)", "values": [{"measurement": "PD-L1 surface expression", "setting": "[1]; 72 hr post siRNA treatment", "value": "induces PD-L1 expression"}]}, {"compound": "siPLK1: siRNA against PLK1, antisense 5′-UAUUCAUUCUUCUUGAUCCGG-3′; SEQ ID NO: 2 (sense strand lacks entry, further chemistry not given here)", "values": [{"measurement": "knockdown of PLK1 mRNA", "setting": "PLK1 mRNA", "value": 85, "unit": "%"}, {"measurement": "increase in PD-L1 mRNA expression", "setting": "[2]", "value": 2.5, "unit": "fold"}, {"measurement": "PD-L1 surface expression", "setting": "[3]", "value": "increase in PD-L1 surface expression"}, {"measurement": "phosphorylation of STAT3", "setting": "[4]", "value": "reduced phosphorylation of STAT3"}]}]}
